Read-outs that look alike come from different tables or passages of the source.
Key:
[1] = system: P. falciparum 3D7 (chloroquine-sensitive); test: pLDH antimalarial assay, P. falciparum 3D7 culture; format: cell-based, Plasmodium falciparum; conditions: for EC50: Plasmodium falciparum, read-out: P. falciparum 3D7 (CQ-Sensitive) EC50 ± S.D.; for Selectivity Index (SI), (CC50 MTT/EC50 pLDH), CQ-Sensitive: Vero CC50 / 3D7 EC50
Protocol: (§1) The parasites were cultivated by the Trager and Jensen methods to determine the antimalarial activity of the hybrid 4-aminoquinoline-pyrano[2,3-c]pyrazole derivatives against chloroquine-sensitive P. falciparum 3D7 and chloroquine-resistant P. falciparum K1. […] The parasites were maintained in continuous culture in fresh group O (Rhesus positive) human erythrocytes suspended in 2% hematocrit in RPMI 1640 containing […] Albumax I, glucose (3 g/L), hypoxanthine (45 μg/L), and gentamicin (50 μg/L). Plasmodium lactate dehydrogenase (pLDH) assays were performed as described by Makler et al., with slight modification. Parasites were plated in asynchronized phase at 2% hematocrit and 2% parasitemia in 100 μL of the test compounds. The compounds were dissolved in DMSO and further diluted in a culture medium. Chloroquine diphosphate and artemisinin were used as antimalarial reference drugs. Unparasitized erythrocytes without the test compounds were the blanks, while parasitized erythrocytes without test compounds were the control for the assay. Plates were placed in an incubator supplied with 5% CO2 and incubated at 37 °C for 48 h. After incubation, plates were subjected to three 30 min of freeze-thaw cycles to lyse and re-suspend the erythrocytes in the culture. Subsequently, Malstat reagent (100 μL) and a nitro blue tetrazolium salt/phenazine ethosulfate (NBT/PES) solution (25 μL) were added to each well of a new 96-well microtiter plate. The culture (25 μL) was then added to the corresponding well of the reagent plate to initiate the lactate dehydrogenase reaction. Color development of the plate was monitored calorimetrically at 650 nm after an hour of incubation in the dark.

[2] = system: P. falciparum K1 (chloroquine-resistant); test: pLDH antimalarial assay, P. falciparum K1 culture; format: cell-based, Plasmodium falciparum; conditions: for Resistance Index (RI), (EC50 Resistance/EC50 Sensitive): K1/3D7; for EC50: Plasmodium falciparum, read-out: P. falciparum K1 (CQ-Resistant) EC50 ± S.D.; for Selectivity Index (SI), (CC50 MTT/EC50 pLDH), CQ-Resistant: Vero CC50 / K1 EC50
Protocol: as §1

[3] = MTT cytotoxicity assay; format: cell-based; conditions: African green monkey, Vero cells (ATCC CCL-81), read-out: Vero Cell (Normal Cell) CC50 ± S.D.
Protocol: The cytotoxicity of the hybrid 4-aminoquinoline-pyrano[2,3-c]pyrazole derivatives was measured using the MTT assay described by Mossmann. […] The cell suspension without test compounds served as the positive control for cell growth. […] The medium was then aspirated, and formazan crystals were solubilized by adding 100 μL of DMSO per well for 10 min at 37 °C in a CO2 incubator. […] Three independent tests were conducted to determine the cytotoxicity of each test compound.

[4] = system: P. berghei; design: method as in PMID 30737133; conditions: P. berghei-infected mice, 5th day after infection; cited from earlier work
[5] = system: P. falciparum; design: method as in doi:10.1039/C6RA01349J; conditions: comparator value; read-out: antiplasmodial activity against P. falciparum; cited from earlier work
[6] = 3D7, chloroquine-sensitive strain, pLDH assay, 48 h
[7] = K1, chloroquine-resistant strain, pLDH assay, 48 h

Row | SMILES | EC50 [1, 6] | Selectivity Index (SI), (CC50 MTT/EC50 pLDH), CQ-Sensitive [1] | Resistance Index (RI), (EC50 Resistance/EC50 Sensitive) [2] | EC50 [2, 7] | Selectivity Index (SI), (CC50 MTT/EC50 pLDH), CQ-Resistant [2] | CC50 at 48 h [3] | EC50 ([1]; 3D7, 48 h) | EC50 ([2]; K1, 48 h) | Antimalarial activity class against K1 ([2]; class by EC50 threshold) | Antimalarial activity class against 3D7 ([1]; class by EC50 threshold) | reduction of parasitemia [4] | IC50 [5]
1 | Nc1ccnc2ccccc12 [4-aminoquinoline] | 9290 ± 120 nM | 12.25 | 15.11 | 140000 ± 27600 nM | 0.81 | 114000 ± 1630 nM | – | – | – | – | – | –
2 | C[C@@H]1CC[C@H]2[C@@H](C)C(=O)O[C@@H]3O[C@@]4(C)CC[C@@H]1[C@]32OO4 [ART, artemisinin, reference compound] | 0.1 nM | >2000 | 1.7 | 0.17 nM | >2000 | – | – | – | – | – | – | –
3 | CCN(CC)CCCC(C)Nc1ccnc2cc(Cl)ccc12 (stereo not drawn) [CQ, chloroquine, reference compound] | – | – | – | – | – | – | 2 nM | 330 nM | – | – | – | –
4 | CCOC(=O)c1nn(CCNc2ccnc3cc(Cl)ccc23)c2c1C(c1ccccc1)C(C#N)=C(N)O2 (stereo not drawn) [Compound 4a, Ethyl 6-Amino-1-(2-((7-chloroquinolin-4-yl)amino)ethyl)-5-cyano-4-phenyl-1,4-dihydropyrano[2,3-c]pyrazole-3-carboxylate] | 190 ± 70 nM | 539.7 | 1.32 | 250 ± 30 nM | 410.16 | – | – | – | – | – | – | –
5 | CCOC(=O)c1nn(CCNc2ccnc3cc(Cl)ccc23)c2c1C(c1ccc(CC)cc1)C(C#N)=C(N)O2 (stereo not drawn) [Compound 4b, Ethyl 6-Amino-1-(2-((7-chloroquinolin-4-yl)amino)ethyl)-5-cyano-4-(4-ethylphenyl)-1,4-dihydropyrano[2,3-c]pyrazole-3-carboxylate] | 13 ± 0.2 nM | 1353.9 | 1.53 | 20 ± 10 nM | 880 | – | – | – | – | – | – | –
6 | CCOC(=O)c1nn(CCNc2ccnc3cc(Cl)ccc23)c2c1C(c1ccco1)C(C#N)=C(N)O2 (stereo not drawn) [Compound 4c, Ethyl 6-Amino-1-(2-((7-chloroquinolyn-4-yl)amino)ethyl)-5-cyano-4-(furan-2-yl)-1,4-dihydropyrano[2,3-c]pyrazole-3-carboxylate] | 113 ± 2 nM | 747.9 | 14.24 | 1610 ± 150 nM | 52.49 | – | – | – | active | – | – | –
7 | CCOC(=O)c1nn(CCNc2ccnc3cc(Cl)ccc23)c2c1C(C(C)C)C(C#N)=C(N)O2 (stereo not drawn) [Compound 4d, Ethyl 6-Amino-1-(2-((7-chloroquinolyn-4-yl)amino)ethyl)-5-cyano-4-isopropyl-1,4-dihydropyrano[2,3-c]pyrazole-3-carboxylate] | 3390 ± 1890 nM | 25.4 | 0.09 | 300 ± 10 nM | 287 | – | – | – | – | active | – | –
8 | CCOC(=O)c1nn(CCNc2ccnc3cc(Cl)ccc23)c2c1C(c1ccc(O)cc1)C(C#N)=C(N)O2 (stereo not drawn) [Compound 4e, Ethyl 6-Amino-1-(2-((7-chloroquinolyn-4-yl)amino)ethyl)-5-cyano-4-(4-hydroxyphenyl)-1,4-dihydropyrano[2,3-c]pyrazole-3-carboxylate] | 26 ± 9 nM | 355.3 | 273.84 | 7120 ± 3720 nM | 1.3 | – | – | – | – | – | – | –
9 | Cc1nnc(Nc2cc(C(F)(F)F)nc3c(C(F)(F)F)cccc23)[nH]1 [VIII, N-(5-methyl-4H-1,2,4-triazol-3-yl)-2,8-bis(trifluoromethyl)quinolin-4-amine] | – | – | – | – | – | – | – | – | – | – | 66% | –
10 | C=C[C@H]1C[N@@]2CC[C@H]1C[C@H]2[C@H](O)c1ccnc2ccc(OC)cc12 [quinine] | – | – | – | – | – | – | – | – | – | – | – | 826 nM

— paper PMC8622706, “Synthesis, Molecular Docking, and Antimalarial Activity of Hybrid 4-Aminoquinoline-pyrano[2,3-c]pyrazole Derivatives” (Pharmaceuticals, 2021)
